Assay results taken from the supplement of paper PMC10307832.

Experiments:
Experiment in all cases: relative viability (nuclei count vs DMSO), 5 days (fraction); higher = more cells survive
[1] = compound: CC1=CC(=CC=C1)NC2=NC(=CS2)C3=CC=NC=C3 + CC(=O)c1c(C)c2cnc(Nc3ccc(N4CCNCC4)cn3)nc2n(C2CCCC2)c1=O [Palbociclib] (partner 0.5 µM)
Outline: (§1)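 Relative viability divides the nuclei count in treated wells by that in vehicle wells. Lung cancer cell lines were seeded in 1536-well plates, dosed by pin tool the next day, and fixed and stained after 5 days in one step with final 0.05% Triton X-100, 1% formaldehyde and 1 ug/ml Hoechst. Dosing was a single drug or a fixed anchor-drug dose plus five library-drug doses (not always all listed) in √10 steps, and values are medians of duplicate plates imaged at 4×.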

Masitinib + Phenformin = compound: Cc1ccc(NC(=O)c2ccc(CN3CCN(C)CC3)cc2)cc1Nc1nc(-c2cccnc2)cs1 [Masitinib] + N=C(N)NC(=N)NCCc1ccccc1 [Phenformin] (partner 250 µM)
Outline: as §1

Masitinib + Decitabine = compound: Cc1ccc(NC(=O)c2ccc(CN3CCN(C)CC3)cc2)cc1Nc1nc(-c2cccnc2)cs1 [Masitinib] + Nc1ncn([C@H]2C[C@H](O)[C@@H](CO)O2)c(=O)n1 [Decitabine] (partner 2 µM)
Outline: as §1

Masitinib + Vorinostat = compound: Cc1ccc(NC(=O)c2ccc(CN3CCN(C)CC3)cc2)cc1Nc1nc(-c2cccnc2)cs1 [Masitinib] + O=C(CCCCCCC(=O)Nc1ccccc1)NO [Vorinostat] (partner 1 µM)
Outline: as §1

Cell Line: UMC-11
- relative viability ([1]; first compound 0.08 µM): 0.339
- relative viability ([1]; first compound 0.253 µM): 0.311
- relative viability ([1]; first compound 0.8 µM): 0.305
- relative viability ([1]; first compound 2.53 µM): 0.334
- relative viability ([1]; first compound 8 µM): 0.313
- relative viability (Masitinib + Phenformin; first compound 0.03162 µM): 0.331
- relative viability (Masitinib + Phenformin; first compound 0.1 µM): 0.363
- relative viability (Masitinib + Phenformin; first compound 0.3162 µM): 0.377
- relative viability (Masitinib + Phenformin; first compound 1 µM): 0.338
- relative viability (Masitinib + Decitabine; first compound 0.01 µM): 0.565
- relative viability (Masitinib + Decitabine; first compound 0.03162 µM): 0.641
- relative viability (Masitinib + Decitabine; first compound 0.1 µM): 0.692
- relative viability (Masitinib + Decitabine; first compound 0.3162 µM): 0.608
- relative viability (Masitinib + Decitabine; first compound 1 µM): 0.596
- relative viability (Masitinib + Vorinostat; first compound 0.01 µM): 0.314
- relative viability (Masitinib + Vorinostat; first compound 0.03162 µM): 0.342
- relative viability (Masitinib + Vorinostat; first compound 0.1 µM): 0.375
- relative viability (Masitinib + Vorinostat; first compound 0.3162 µM): 0.366
- relative viability (Masitinib + Vorinostat; first compound 1 µM): 0.359
